Experimental data: article PMC10468765, “Substituted 1,2,4-Triazoles as Novel and Selective Inhibitors of Leukotriene Biosynthesis Targeting 5-Lipoxygenase-Activating Protein” (ACS Omega, 2023)

test system: 5-lipoxygenase-activating protein (FLAP); assay: cells; parameters: species or system human neutrophils; Inhibition of 5-LO product formation (LTB4, its trans isomers, 5-H(p)ETE) in A23187-stimulated human neutrophils, FLAP-dependent assay; conditions: Neutrophil; 2.5 uM A23187

Structure (SMILES) | IC50
COc1ccc(-n2c(SCc3nc4ccccc4s3)nnc2-c2ccc(C#N)cc2)cc1 [6s] | 1920 ± 580 nM
COc1cccc(-n2c(SCc3nc4ccccc4s3)nnc2-c2cccs2)c1 [6c] | 1580 ± 590 nM
COc1ccc(-n2c(OCc3ccc4ccccc4n3)nnc2-c2cccs2)cc1 [6o] | 6340 ± 790 nM
COc1ccc(-n2c(SCc3nc4ccccc4s3)nnc2-c2cccs2)cc1 [6a] | 2180 ± 650 nM
COc1ccc(-n2c(OCc3nc4ccccc4s3)nnc2-c2cccs2)cc1 [6n] | 3010 ± 840 nM
N#Cc1ccc(-c2nnc(SCc3nc4ccccc4s3)n2-c2ccccc2)cc1 [6z] | 1930 ± 370 nM
COc1ccc(-n2c(SCc3ccc(C(F)(F)F)o3)nnc2-c2cccs2)cc1 [6l] | 1420 ± 310 nM
COc1ccc(-n2c(SCc3ccc4ccccc4n3)nnc2-c2cccs2)cc1 [6j] | 3690 ± 1020 nM
COc1cccc(-n2c(SCc3ccc4ccccc4n3)nnc2-c2cccs2)c1 [6k] | 4170 ± 270 nM
COc1ccc(-n2c(SCc3nc4ccccc4s3)nnc2-c2ccccc2)cc1 [6q] | 1280 ± 190 nM
Clc1ccc(-n2c(SCc3nc4ccccc4s3)nnc2-c2cccs2)cc1 [6d] | 1360 ± 270 nM
